This note sets out measurements from patent publication US20210100859A1, “HERPES SIMPLEX VIRUS (HSV) ANTICANCER THERAPIES” (priority 2019, published 2021).

In one assay the test system is TR127 cells. The experiment in a line: Virus spread: GFP+ RAMBO infected cells by flow cytometry. The class given is cell-based, human. Conditions: TR127, RAMBO MOI=0.1 1 hr then CP 2 μM 16 hr; presence vs absence of CP. As to the method:
FIGS. 1A-1J: RAMBO increases cisplatin accumulation in cisplatin-resistant ovarian cancer cells. (FIG. 1A) Representative histogram (left) and quantification (right) of percentage of GFP^+ infected cisplatin resistant ovarian cancer cells. TR127 cells infected with RAMBO (MOI=0.1) for 1 hr and then treated with CP (2 μM) for 16 hr. Data shown are mean percentage of GFP^+ RAMBO infected TR127 cells (±s.d) analyzed by flow cytometry (n=3/group). (FIG. 1B) Quantification of intracellular CP retained inside platin resistant OC cells treated with/without RAMBO. OVCAR8, TR127 and TR182 were treated with/without RAMBO (MOI=0.1) for one hour and then incubated with 2.5 μM Texas-red labeled CP. Twenty-four hours post-infection CP accumulation in cells was analyzed by flow cytometry. Data shown are mean fluorescence intensity (MFI) of Texas-red labeled CP (±s.d., n=3/group). […] Briefly, RNA harvested from OVTOKO cells treated with RAMBO (MOI=1) for 16 hr was analyzed by RNAseq. […] (FIG. 1I) Quantification of Texas-red labeled CP accumulation in TR127 cells knocked down for either ATP7B, ATP11B, or both was analyzed by flow cytometry (n=3/group). (FIG. 1J) Quantification of Texas-red labeled CP accumulation in OVTOKO cells overexpressing (OE) both ATP11B and ATP7B, or control (Ctl). Cells were analyzed by flow cytometry. […]

The next assay has as its system ATP11B and ATP7B. The assay is described as follows: Western blot of efflux proteins. The class given is cell-based, human. Conditions: TR127 and TR182 cells treated with RAMBO and/or CP.

Take `N.N.[Cl][Pt][Cl]` [CP, cisplatin]: the “GFP expression (GFP positive tumor cells as indicator of infection)” value with TR127 cells is on record as “no difference”. Further, the “protein expression of ATP11B and ATP7B” value in the assay on ATP11B and ATP7B is listed as “no effect”.
